Source: ChEMBL document CHEMBL3091441, “Ligand modifications to reduce the relative resistance of multi-drug resistant HIV-1 protease” (Bioorg Med Chem, 2013)
*1 amine or outer side, *2 acyl side, *3 side chain or, on linkers, in order; H or OH if unused. Where a SMILES comes first, the peptide text is derived from it. Side-chain parts run from the residue outwards. [ ]: non-standard residue; d: D form. N(2S-amino-4-Me-pentyl)Phe = CC(C)C[C@@H](CN([C@@H](Cc1ccccc1)C(=O)[*:2])[*:1])N[*:3]; N(2S-NH-3-Ph-propyl)Phe = O=C([C@H](Cc1ccccc1)N(C[C@H](Cc1ccccc1)N[*:3])[*:1])[*:2]; Nle = CCCC[C@H](N)C(=O)O

Assays:
[1] = Inhibition of HIV-1 multidrug-resistant protease 769 preincubated for 20 mins by FRET analysis; design: species or system Human immunodeficiency virus 1
Protease = Protease (Human immunodeficiency virus 1, UniProt Q9YQ12); assay: Inhibition of HIV-1 NL4-3 wild type protease expressed in Escherichia coli preincubated for 20 mins by FRET analysis
Chain of Protease (Q9YQ12 whole entry): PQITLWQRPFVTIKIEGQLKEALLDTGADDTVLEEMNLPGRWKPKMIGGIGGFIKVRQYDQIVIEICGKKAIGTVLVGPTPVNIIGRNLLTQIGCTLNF

[2] = test system: Human immunodeficiency virus 1; assay: Ratio of IC50 for HIV-1 multidrug-resistant protease 769 to IC50 for HIV-1 NL4-3 wild type protease

| SMILES | IC50 [1] [nM] | IC50 (Protease) [nM] | Ratio IC50 [2] |
| --- | --- | --- | --- |
| Cc1cccc(C)c1OCC(=O)N[C@@H](Cc1ccccc1)[C@@H](O)C[C@H](Cc1ccccc1)NC(=O)[C@H](C(C)C)N1CCCNC1=O [LOPINAVIR] | 16 | – | – |
| CCCC[C@H](NC(=O)CNC(=O)[C@H](CCC(=O)O)NC(=O)[C@H](Cc1ccccc1)NC[C@H](CC(C)C)NC(=O)[C@@H](NC(=O)[C@@H](N)CCCNC(=N)N)C(C)C)C(=O)O (H-[N(2S-amino-4-Me-pentyl)Phe]([Val-Arg])EG[Nle]-OH) | 4.4 | 2.6 | 1.7 |
| CCCC[C@H](NC(=O)CNC(=O)[C@H](CCC(=O)O)NC(=O)[C@H](Cc1ccccc1)NC[C@H](Cc1ccccc1)NC(=O)[C@@H](NC(=O)[C@@H](N)CCCNC(=N)N)C(C)C)C(=O)O (H-[N(2S-NH-3-Ph-propyl)Phe]([Val-Arg])EG[Nle]-OH) | 142 | 30.7 | 4.6 |
| Cc1cccc(C)c1OCC(=O)N[C@@H](Cc1ccccc1)[C@@H](O)C[C@H](CC(C)C)NC(=O)[C@H](C(C)C)N1CCCNC1=O | 6.8 | 2.1 | 3.2 |
